Literature values as cited in patent US6486129B1, “Antithrombotic compounds” (Akzo Nobel N.V., priority 1998, dated 2002).

Biological target: thrombin (Homo sapiens, UniProt P00734)
Conditions: background description of prior art

- thrombin specificity: low thrombin specificity
Substance: Nα-(2-naphthylsulfonyl)-glycyl-4-amidinophenylaianinpiperidide [NAPAP]
